Data published in US12059425B2, “Heterocyclic compounds and uses thereof” (Kumquat Biosciences Inc., priority 2022, dated 2024).

Experiments:
K-Ras G12D = biological target: T1, K-Ras G12D (Homo sapiens, UniProt P01116, G12D); test: PPI-HTRF assay, K-Ras G12D / SOS1 interaction; format: biochemical; details: HTRF, K-Ras G12D; read-out: PPI-HTRF-5 nM (K-Ras G12D IC50)
T1 construct: made in house; host or cells: E. coli, e.g. BL21 (DE3)
Description: (§1) This assay can be also used to assess a selective inhibition or reduction of signaling output of a mutant Ras protein relative to a wildtype, or relative to a different mutant Ras protein. For example, the equilibrium interaction of wildtype Kras or K-Ras mutant (e.g., wildtype or a mutant thereof) with SOS1 (e.g., hSOS1) can be assessed as a proxy or an indication for a subject compound's ability to bind and inhibit Ras protein. HTRF assay detects from (i) a fluorescence resonance energy transfer (FRET) donor (e.g., antiGST-Europium) that is bound to GST-tagged K-Ras mutant to (ii) a FRET acceptor (e.g., anti-6His-XL665) bound to a His-tagged hSOS1.
(§2) The assay buffer can contain ˜5 mM HEPES pH 7.4, ˜150 mM NaCl, ˜1 mM DTT, 0.05% BSA and 0.0025% (v/v) Igepal. A Ras working solution is prepared in an assay buffer containing typically a suitable amount of the protein construct (e.g., GST-tagged K-Ras mutant) and the FRET donor (e.g., antiGST-Eu(K) from Cisbio, France). A SOS1 working solution is prepared in an assay buffer containing suitable amount of the protein construct (e.g., His-hSOS1) and the FRET acceptor (e.g., anti-6His-XL665 from Cisbio, France). A suitable amount of the protein construct will depend on the range of activity or range of IC50 values being detected or under investigation. For detecting IC50 within a range of 500 nM, the protein constructs of the same range of molarity can be utilized.
(§3) A fixed volume of DMSO with or without test compound is transferred into a 384-well plate. Ras working solution is added to all wells of the test plate. SOS1 working solution is added to all wells except for those that are subsequently filled the inhibitor control solution. Upon incubation for about 10 minutes or longer, the fluorescence is measured with a M1000Pro plate reader (Tecan) using HTRF detection (excitation 337 nm, emission 1: 620 nm, emission 2: 665 nm). Compounds are tested in duplicate at different concentrations (for example, 10 μM, 2.5 μM, 0.63 μM, 0.16 μM, 0.04 μM, 0.01 μM test compound). The ratiometric data (i.e., emission 2 divided by emission 1) is used to calculate IC50 values against Ras using GraphPad Prism (GraphPad software). Following this general procedure, samples are tested with or without a subject compound disclosed herein including compounds exemplified in Table 1 to assess their abilities to inhibit a mutant K-Ras relative to another K-Ras (e.g., different mutant or wildtype). Signaling output measured in terms of IC50 values can be obtained, a ratio of IC50 against one mutant relative to another mutant can be calculated. For instance, a selective reduction of K-Ras G12D signaling output can be evidenced by a ratio greater than one. In particular, a selective reduction of K-Ras G12D signaling relative to K-Ras WT signaling is evidenced if the ratio of IC50 (against K-Ras WT) to IC50 (against K-Ras G12D) is greater than 1.

K-Ras G12S = biological target: T2, K-Ras G12S (Homo sapiens, UniProt P01116, G12S); test: PPI-HTRF assay, K-Ras G12S / SOS1 interaction; format: biochemical; details: read-out: PPI-HTRF-5 nM (K-Ras G12S IC50)
T2 construct: made in house; host or cells: E. coli, e.g. BL21 (DE3)
T2 sequence (P01116 1-188 isoform P01116-2 G12S): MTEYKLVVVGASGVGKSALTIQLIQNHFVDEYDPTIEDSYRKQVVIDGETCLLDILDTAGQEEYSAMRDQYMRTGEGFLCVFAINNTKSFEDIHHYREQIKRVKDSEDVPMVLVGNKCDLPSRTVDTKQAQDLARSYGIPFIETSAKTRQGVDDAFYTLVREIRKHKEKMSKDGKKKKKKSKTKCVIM
Description: as §1, §2, §3

K-Ras G12V = biological target: T3, K-Ras G12V (Homo sapiens, UniProt P01116, G12V); test: PPI-HTRF assay, K-Ras G12V / SOS1 interaction; format: biochemical; details: HTRF, K-Ras G12V; read-out: PPI-HTRF-5 nM (K-Ras G12V IC50)
T3 construct: made in house; host or cells: E. coli, e.g. BL21 (DE3)
T3 sequence (P01116 1-188 isoform P01116-2 G12V): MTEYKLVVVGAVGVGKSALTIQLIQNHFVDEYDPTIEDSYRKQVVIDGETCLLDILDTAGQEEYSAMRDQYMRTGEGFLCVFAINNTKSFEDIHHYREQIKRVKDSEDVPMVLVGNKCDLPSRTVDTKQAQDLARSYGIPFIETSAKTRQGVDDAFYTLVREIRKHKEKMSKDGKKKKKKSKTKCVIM
Description: as §1, §2, §3

wildtype K-Ras = biological target: T4, wildtype K-Ras (Homo sapiens, UniProt P01116); test: PPI-HTRF assay, wildtype K-Ras / SOS1 interaction; format: biochemical; details: HTRF, K-Ras wt; read-out: PPI-HTRF-5 nM (K-Ras wt IC50)
T4 construct: made in house; host or cells: E. coli, e.g. BL21 (DE3)
T4 sequence (P01116 1-188 isoform P01116-2): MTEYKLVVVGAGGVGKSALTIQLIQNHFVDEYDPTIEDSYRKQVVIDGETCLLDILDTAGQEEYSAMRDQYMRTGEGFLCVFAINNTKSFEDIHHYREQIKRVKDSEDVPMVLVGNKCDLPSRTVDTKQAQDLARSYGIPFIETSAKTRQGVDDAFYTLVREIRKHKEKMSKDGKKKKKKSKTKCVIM
Description: as §1, §2, §3

GP2D cells = test: Ras cellular assay, cell proliferation GP2D; format: cell-based
Experimental: (§4) For example, this assay can be also used to assess selective growth inhibition of a mutant Ras protein relative to a wildtype, or relative to a different mutant Ras protein.
ASPC-1 (ATCC CRL-1682), Panc-10.05 (ATCC CRL-2547), A427, GP2d cell lines or any other cell lines comprising a G12D mutation can be used to assess Ras cellular signaling in vitro, e.g., in response to a compound described herein. For example, ASPC-1 culture medium is prepared with RPMI-1640 and 10% heat-inactivated FBS. Panc-10.05 culture medium is prepared with RPMI-1640, 10 Units/mL human recombinant insulin, and 10% FBS. A427 cell culture is prepared with RPMI-1640 and 10% heat-inactivated FBS. A CellTiter-Glo (CTG) luminescent based assay (Promega) is used to assess growth of the cells, as a measurement of the ability of the compounds herein to inhibit Ras signaling in the cells. The cells (e.g., 800 per well) are seeded in their respective culture medium in standard tissue culture-treated 384-well format plates (Falcon #08-772-116) or ultra-low attachment surface 384-well format plates (S-Bio #MS-9384UZ). The day after plating, cells are treated with a dilution series (e.g., a 9 point 3-fold dilution series) of the compounds herein (e.g., approximately 40 μL final volume per well). Cell viability can be monitored (e.g., approximately 5 days later) according to the manufacturer's recommended instructions, where the CellTiter-Glo reagent is added (e.g., approximately 10 μL), vigorously mixed, covered, and placed on a plate shaker (e.g., approximately for 20 min) to ensure sufficient cell lysis prior to assessment of luminescent signal. The IC50 values are determined using the four parameter fit. The resulting IC50 value is a measurement of the ability of the test compound to reduce cell growth of Ras-driven cells (e.g., tumor cell lines) in vitro and/or in vivo.

SW620 cells = test: Ras cellular assay, cell proliferation SW620; format: cell-based; details: Homo sapiens, SW-620
Description: as §4

T1 sequence (P01116 1-188 isoform P01116-2 G12D): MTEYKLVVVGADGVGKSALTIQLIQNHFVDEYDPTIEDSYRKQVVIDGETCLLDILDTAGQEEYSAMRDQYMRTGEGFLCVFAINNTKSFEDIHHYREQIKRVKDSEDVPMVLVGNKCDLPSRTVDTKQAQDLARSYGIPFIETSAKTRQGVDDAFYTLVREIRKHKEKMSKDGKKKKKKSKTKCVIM

IC50 (K-Ras G12D) [µM] | IC50 (K-Ras G12S) [µM] | IC50 (K-Ras G12V) [µM] | IC50 (wildtype K-Ras) [µM] | IC50 (SW620 cells) [µM] | SMILES | IC50 (GP2D cells) [µM]
< 5 | < 5 | < 5 | < 5 | > 5 | N#Cc1c(N)sc2c(F)ccc(-c3c(Cl)c4c5c(nc(OC[C@@]67CCCN6C[C@H](F)C7)nc5c3F)N3CC(N)CCC3CCO4)c12 (stereo partly drawn) [compound 129, 2-amino-4-(9-amino-3-chloro-1-fluoro-13-(((2R,7aS)-2-fluorotetrahydro-1H-pyrrolizin-7a(5H)-yl)methoxy)-6,6a,7,8,9,10-hexahydro-5H-pyrido[1′,2′:5,6][1,5]oxazocino[4,3,2-de]quinazolin-2-yl)-7-fluorobenzo[b]thiophene-3-carbonitrile] | < 5
< 5 | < 5 | < 5 | < 5 | > 5 | CC(CN(C)C)N1c2nc(OC[C@@]34CCCN3C[C@H](F)C4)nc3c(F)c(-c4ccc(F)c5sc(N)c(C#N)c45)c(Cl)c(c23)OCC2COCC21 (stereo partly drawn) [compound 102, 2-amino-4-(6-chloro-12-(1-(dimethylamino)propan-2-yl)-4-fluoro-2-(((2R,7aS)-2-fluorotetrahydro-1H-pyrrolizin-7a(5H)-yl)methoxy)-8a,9,11a,12-tetrahydro-8H,11H-furo[3′,4′:6,7][1,5]oxazocino[4,3,2-de]quinazolin-5-yl)-7-fluorobenzo[b]thiophene-3-carbonitrile] | < 5
< 5 | < 5 | < 5 | < 5 | < 5 | N#Cc1c(N)sc2c(F)ccc(-c3c(Cl)c4c5c(nc(OC[C@@]67CCCN6C[C@H](F)C7)nc5c3F)N3C[C@H](O)C[C@@H]3CCO4)c12 [compound 164, 2-amino-4-((2R,13aS)-10-chloro-8-fluoro-6-(((2R,7aS)-2-fluorotetrahydro-1H-pyrrolizin-7a(5H)-yl)methoxy)-2-hydroxy-1,2,3,12,13,13a-hexahydropyrrolo[1′,2′:5,6][1,5]oxazocino [4,3,2-de]quinazolin-9-yl)-7-fluorobenzo[b]thiophene-3-carbonitrile] | < 5
– | – | – | – | – | N#Cc1c(N)sc2c(F)ccc(-c3c(Cl)c4c5c(nc(OC[C@@]67CCCN6C[C@H](F)C7)nc5c3F)N3CCC[C@@H]3CCO4)c12 [compound 183, 2-amino-4-((13aR)-10-chloro-8-fluoro-6-(((2R,7aS)-2-fluorotetrahydro-1H-pyrrolizin-7a(5H)-yl)methoxy)-1,2,3,12,13,13a-hexahydropyrrolo[1′,2′:5,6][1,5]oxazocino [4,3,2-de]quinazolin-9-yl)-7-fluorobenzo[b]thiophene-3-carbonitrile] | < 5
< 5 | < 5 | < 5 | < 5 | < 5 | CNC1CCN2c3nc(OC[C@@]45CCCN4C[C@H](F)C5)nc4c(F)c(-c5ccc(F)c6sc(N)c(C#N)c56)c(Cl)c(c34)OCCC2C1 (stereo partly drawn) [compound 158, 2-amino-4-(3-chloro-1-fluoro-13-(((2R,7aS)-2-fluorotetrahydro-1H-pyrrolizin-7a(5H)-yl)methoxy)-8-(methylamino)-6,6a,7,8,9,10-hexahydro-5H-pyrido[11,2′:5,6][1,5]oxazocino[4,3,2-de]quinazolin-2-yl)-7-fluorobenzo[b]thiophene-3-carbonitrile] | > 5
< 5 | – | – | – | – | N#Cc1c(N)sc2c(F)ccc(-c3c(Cl)c4c5c(nc(OC[C@@]67CCCN6C[C@H](F)C7)nc5c3F)N3CCC(C#N)CC3CO4)c12 (single isomer, unassigned) [compound 211] | < 5
< 5 | < 5 | < 5 | < 5 | < 5 | CN1c2nc(OC[C@@]34CCCN3C[C@H](F)C4)nc3c(F)c(-c4ccc(F)c5sc(N)c(C#N)c45)c(Cl)c(c23)OCC2CCC21 (stereo partly drawn) [compound 187, 2-amino-4-(6-chloro-4-fluoro-2-(((2R,7aS)-2-fluorotetrahydro-1H-pyrrolizin-7a(5H)-yl)methoxy)-11-methyl-8,8a,9,10,10a,11-hexahydrocyclobuta[6,7][1,5]oxazocino [4,3,2-de]quinazolin-5-yl)-7-fluorobenzo[b]thiophene-3-carbonitrile] | < 5
< 5 | – | – | – | < 5 | N#Cc1c(N)sc2c(F)ccc(-c3c(Cl)c4c5c(nc(OC[C@@]67CCCN6C[C@H](F)C7)nc5c3F)N3CCC[C@@H]3CC(C(F)F)O4)c12 (single isomer, unassigned) [compound 212] | < 5
– | – | – | – | – | N#CCC1CCN2c3nc(OC[C@@]45CCCN4C[C@H](F)C5)nc4c(F)c(-c5ccc(F)c6sc(N)c(C#N)c56)c(Cl)c(c34)OCC2C1 (single isomer, unassigned) [compound 162] | < 5
– | – | – | – | > 5 | CC(O)C1C[C@H]2CCCN2c2nc(OC[C@@]34CCCN3C[C@H](F)C4)nc3c(F)c(-c4ccc(F)c5sc(N)c(C#N)c45)c(Cl)c(c23)O1 (single isomer, unassigned) [compound 135] | < 5
< 5 | – | – | – | – | N#Cc1c(N)sc2c(F)ccc(-c3c(Cl)c4c5c(nc(OC[C@@]67CCCN6C[C@H](F)C7)nc5c3F)N3CC5(CCN5C(=O)n5cncn5)CC3CO4)c12 (stereo partly drawn) [compound 190, 2-amino-4-(6′-chloro-4′-fluoro-2′-(((2R,7aS)-2-fluorotetrahydro-1H-pyrrolizin-7a(5H)-yl)methoxy)-1-(1H-1,2,4-triazole-1-carbonyl)-8a′,9′-dihydro-8′H,11′H-spiro[azetidine-2,10′-pyrrolo[2′,1′:3,4][1,4]oxazepino[5,6,7-de]quinazolin]-5′-yl)-7-fluorobenzo[b]thiophene-3-carbonitrile] | < 5
< 5 | – | – | – | – | N#Cc1c(N)sc2c(F)ccc(-c3c(Cl)c4c5c(nc(OCC67CCCN6C[C@H](F)C7)nc5c3F)N3CCCCC3CCO4)c12 (single isomer, unassigned) [compound 184] | < 5
